Assay results as given in patent US6800638B2, “Tetrahydropyridine derivatives, their preparation and their use as cell proliferation inhibitors” (Hoffman-La Roche Inc., priority 2000, dated 2004).

System: HDAC
Experiment: HDAC inhibition assay with aminocoumarin derivative of omega-acetylated lysine as substrate
Type: biochemical
Conditions: compound concentration 10 nM; protocol of Hoffmann et al. 1999
Procedure: To determine the HDAC inhibitory properties of the compounds of the invention an assay was performed using an aminocoumarin derivative of an omega-acetylated lysine as substrate for the enzyme. This assay has been described in detail by Hoffmann, K., et al., Nucleic Acids Res. 27 (1999) 2057-2058. Using the protocol described therein, the inhibitory effect of representative compounds was determined at a concentration of 10 nM.

## O=C(CCCCCCCN1CCc2ccccc2C1)NO [Example 1, 8-(3,4-Dihydro-1H-isoquinolin-2-yl)-octanoic acid hydroxyamide]
  Inhibitory effect at 10 nM in %: 54%

## CCOc1cc2c(cc1OCC)CN(CCCCCCCC(=O)NO)CC2 [Example 5, 8-(6,7-Diethoxy-3,4-dihydro-1H-isoquinolin-2-yl)-octanoic acid hydroxyamide]
  Inhibitory effect at 10 nM in %: 26%

## COc1cc2c(cc1OC)C(c1ccccc1)N(CCCCCCCC(=O)NO)CC2 (stereo not shown) [Example 6, 8-(6,7-dimethoxy-1-phenyl-3,4-dihydro-1H-isoquinolin-2-yl)-octanoic acid hydroxyamide]
  Inhibitory effect at 10 nM in %: 26%

## O=C(CCCCCCCN1CCc2c([nH]c3ccccc23)C1)NO [Example 7, 8-(1,3,4,9-tetrahydro-β-carbolin-2-yl)-octanoic acid hydroxyamide]
  Inhibitory effect at 10 nM in %: 26%
